Experimental findings from patent publication US20200061062A1, “INHIBITORS OF HUMAN PHOSPHATIDYLINOSITOL 3-KINASE DELTA” (ICOS Corporation, priority 2000, published 2020) are described below.

Where only a bound is given, the exact number is not on record here.

For series [1], the target named is T1, PI3Kα (Homo sapiens, UniProt P42336).
T1 construct: His tag (pFastbac HTb vector) (N); FLAG; made in house; host or cells: Sf21 insect cells (baculovirus)
Nature of the series: Biochemical assay of PI3K potency and selectivity using 20 μM ATP, Alpha. Particulars: for Alpha/Delta Ratio / IC50: 20 μM ATP; for Alpha/Delta Ratio: ratio of IC50 values, > = hypothetical ratio with 100 μM substituted for the missing IC50; for IC50: read-out: Alpha IC50; for remaining activity at 100 µM: read-out: percent activity remaining at 100 μM, 20 μM ATP, 100 μM compound did not inhibit by at least 50%. The gist of the method:
(§1)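 Radioactive phosphate transfer from γ-[32P]ATP onto PIP2/PS liposomes was measured in 20 mM HEPES, pH 7.4, at 20 μM ATP. The 3× substrate stock contained […] and 6 μM PIP2/PS.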

Series [2] deals with T2, PI3Kβ (Homo sapiens, UniProt P42338).
T2 construct: His tag (pFastbac HTa vector) (N); FLAG (N); made in house; host or cells: Sf21 insect cells (baculovirus)
The experiment in a line: Biochemical assay of PI3K potency and selectivity using 20 μM ATP, Beta. Particulars: 20 μM ATP; for Beta/Delta Ratio: ratio of IC50 values, > = hypothetical ratio with 100 μM substituted for the missing IC50; for IC50: read-out: Beta IC50; for remaining activity at 100 µM: read-out: Beta: percent activity remaining at 100 μM, 100 μM compound did not inhibit by at least 50%. Put shortly:
as §1

Series [3] addresses T1, PI3Kα. Nature of the series: Biochemical assay using 200 μM ATP, Alpha.
Series [4] concerns the target T2, PI3Kβ. The experiment in a line: Biochemical assay using 200 μM ATP, Beta.
Method: (§3) PI3Kδ catalyzes a phosphotransfer from γ-[^32P]ATP to PIP2/PS liposomes at the D3′ position of the PIP2 lipid inositol ring. This reaction is MgCl2 dependent and is quenched in high molarity potassium phosphate buffer pH 8.0 containing 30 mM EDTA. […] The reaction products (and all unlabelled products) are transferred to a 96-well, prewetted PVDF filter plate, filtered, and washed in high molarity potassium phosphate. Scintillant is added to the dried wells and the incorporated radioactivity is quantitated.
(§4) This dilution established a final concentration of 200 μM ATP in the reaction volume. The reaction was stopped with 150 μL quench buffer (1.0 M potassium phosphate pH 8.0, 30 mM EDTA). A portion of the quenched solution (180 μL) was then transferred to a PVDF filter plate (Millipore # MAIP NOB prewetted with sequential 200 μL washes of 100% methanol, water, and finally 1.0 M potassium phosphate pH 8.0 wash buffer).
(§5) The PVDF filter plate was aspirated under moderate vacuum (2-5 mm Hg), washed with 5×200 μL of wash buffer, and then dried by aspiration. The filter was subsequently blotted, allowed to air dry completely, and inserted into a Wallac counting cassette with 50 μL of Ecoscint scintillation cocktail added per well.
(§6) Subsequent selectivity assays were done similarly using the same 3× substrate stocks except they contained 0.05 mCi/mL γ[^32P]ATP and 3 mM PIP2. Subsequent selectivity assays also used the same 3× enzyme stocks, except they now contained 3 nM of any given PI3K isoform.
(§7) For all selectivity assays, the test compounds were weighed out and dissolved into 10-50 mM stocks in 100% DMSO (depending on their respective solubilities) and stored at −20° C. […] From these dilutions, 20 μL was added into the assay wells alongside water blanks used for the enzyme (positive) control and the no enzyme (background) control.
(§8) This selectivity protocol is identical to that described above, except the 3× stock ATP concentration was 600 μM.
Series [5] has as its target T3, PI3Kγ (Homo sapiens, UniProt P48736).
T3 construct: His tag (pFastbac HTb vector) (N); FLAG (N); made in house; host or cells: Sf21 insect cells (baculovirus)
The experiment in a line: Biochemical assay using 200 μM ATP, Gamma.
Method: as §3, §4, §5, §6, §7, §8

Series [6] has as its system Murine splenocytes (Balb/c). The experiment in a line: B cell proliferation in response to cell surface IgM stimulation. Type of series: cell-based. Particulars: Mus musculus, Splenocyte; stimulated B cell proliferation; read-out: Mouse BCR Stim (EC50). The method, then:
In the above experiment, the B cells were stimulated using PANSORBIN®. The effect of D-000 on B cell proliferation response when they were stimulated through their cell surface IgM using anti-IgM antibody also was measured. Murine splenocytes (Balb/c) were plated into 96-well microtiter plates at 2×10^5 cells per well in 10% FBS/RPMI. Appropriate dilutions of test inhibitor in complete medium were added to the cells and the plates were incubated for 30-60 minutes prior to the addition of stimulus. Following the preincubation with test inhibitor an F(ab′)2 preparation of goat antibody specific for the μ-chain of mouse IgM was added to the wells at a final concentration of 25 μg/mL. The plates were incubated at 37° C. for 3 days and 1 μCi of [^3H]-thymidine was added to each well for the final four hours of culture. The plates were harvested onto fiber filters washed and the incorporation of radiolabel was determined using a beta counter (Matrix 96, Packard Instrument Co., Downers Grove, Ill.) and expressed as counts per minute (CPM).
(§2) Using the methods described in Examples 3-5, above, compounds of the invention were tested for inhibitory activity and potency in assays of stimulated B and T cell proliferation, neutrophil (PMN) migration, and neutrophil (PMN) elastase release. In Table 4, the values shown are effective concentrations of the compound (EC50; μM). Where no value is given, no assay was performed.

A further series deals with T cell proliferation. Nature of the series: Stimulated T cell proliferation (Mouse TCE Stim, Table 4). Type of series: cell-based. Particulars: stimulated T cell proliferation, read-out: Mouse TCE Stim (EC50).
Series [7] concerns the target T4, PI3Kδ (Homo sapiens, UniProt O00329, S253N). Nature of the series: Biochemical assay using 200 μM ATP, Delta.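 Note: radiometric filter-binding assay: PI3Kδ transfers ³²P from γ-[³²P]ATP onto PIP2/PS liposomes, counted by scintillation, enzyme-only wells as positive control, no-enzyme wells as background.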
Method: as §3, §4, §5, §6, §7, §8
The target of series [8] is T4, PI3Kδ. The experiment in a line: Biochemical assay of PI3K potency and selectivity using 20 μM ATP, Delta. On the set-up: His tag (pFastbac HTb vector) (N); FLAG; made in house; host or cells: Sf21 insect cells (baculovirus). Particulars: 20 μM ATP; read-out: Delta IC50. The gist of the method:
as §1

A further series concerns human neutrophils. The experiment in a line: Elastase exocytosis from neutrophils (fMLP-induced). Type of series: cell-based. Particulars: neutrophil (PMN) elastase release. The procedure:
Aliquots (8 mL) of heparinized blood from healthy volunteers were layered on 3 mL cushions of 7.3% FICOLL® (Sigma, St. Louis, Mo.) and 15.4% HYPAQUE® (Sigma) and centrifuged at 900 rpm for 30 min at room temperature in a table top centrifuge (Beckman). The neutrophil-rich band just above the FICOLL®-HYPAQUE® cushion was collected and washed with Hanks' balanced salt solution (HBSS) containing 0.1% gelatin. Residual erythrocytes were removed by hypotonic lysis with 0.2% NaCl. The neutrophil preparation was washed twice with HBSS containing 0.1% gelatin and used immediately.
In addition to superoxide generation, activated neutrophils also respond by releasing several proteases that are responsible for the destruction of tissues and cartilage during inflammation. As an indication of protease release, the effect of D-000 on elastase exocytosis was measured. Elastase exocytosis was quantitated by modification of the procedure described by Ossanna et al. (J Clin Invest, 77:1939-1951 (1986)), as follows. Purified human neutrophils (0.2×10^6) (treated with either DMSO or a serial dilution of D-000 in DMSO) were stimulated with fMLP in PBS containing 0.01 mg/mL cytochalasin B, 1.0 μM sodium azide (NaN3), 5 μg/mL L-methionine and 1 μM fMLP for 90 min at 37° C. in a 96-well plate. At the end of the incubation period, the plate was centrifuged for 5 min at 1000 rpm, and 90 μL of the supernatant was transferred to 10 μL of 10 mM solution of an elastase substrate peptide, MeO-suc-Ala-Ala-Pro-Val-pNA, wherein MeO-suc=methoxy-succinyl; pNA=p-nitroanilide (Calbiochem, San Diego, Calif.). Absorbance at 410 nm was monitored for 2 hr in a 96-well plate reader. To measure the relative amounts of elastase excytosed, all absorbance values were normalized to the values without any inhibitor. […] Inhibition was half-maximal at a concentration of about 2-3 μM D-000.
as §2

Series [9] has as its target T3, PI3Kγ. Nature of the series: Biochemical assay of PI3K potency and selectivity using 20 μM ATP, Gamma. The text has this:
Recombinant baculoviruses containing the above clones were generated using manufacturer's recommended protocol (Life Technologies). Baculoviruses expressing His-tagged p110α, p110γ, or p110δ catalytic subunit and p85 subunit were coinfected into Sf21 insect cells. To enrich the heterodimeric enzyme complex, an excess amount of baculovirus expressing p85 subunit was infected, and the His-tagged p110 catalytic subunit complexed with p85 was purified on nickel affinity column. […] In an alternate approach, p101 can be cloned into baculovirus, to permit coexpression with its preferred binding partner p110γ. […]

T4 sequence (O00329 whole entry S253N): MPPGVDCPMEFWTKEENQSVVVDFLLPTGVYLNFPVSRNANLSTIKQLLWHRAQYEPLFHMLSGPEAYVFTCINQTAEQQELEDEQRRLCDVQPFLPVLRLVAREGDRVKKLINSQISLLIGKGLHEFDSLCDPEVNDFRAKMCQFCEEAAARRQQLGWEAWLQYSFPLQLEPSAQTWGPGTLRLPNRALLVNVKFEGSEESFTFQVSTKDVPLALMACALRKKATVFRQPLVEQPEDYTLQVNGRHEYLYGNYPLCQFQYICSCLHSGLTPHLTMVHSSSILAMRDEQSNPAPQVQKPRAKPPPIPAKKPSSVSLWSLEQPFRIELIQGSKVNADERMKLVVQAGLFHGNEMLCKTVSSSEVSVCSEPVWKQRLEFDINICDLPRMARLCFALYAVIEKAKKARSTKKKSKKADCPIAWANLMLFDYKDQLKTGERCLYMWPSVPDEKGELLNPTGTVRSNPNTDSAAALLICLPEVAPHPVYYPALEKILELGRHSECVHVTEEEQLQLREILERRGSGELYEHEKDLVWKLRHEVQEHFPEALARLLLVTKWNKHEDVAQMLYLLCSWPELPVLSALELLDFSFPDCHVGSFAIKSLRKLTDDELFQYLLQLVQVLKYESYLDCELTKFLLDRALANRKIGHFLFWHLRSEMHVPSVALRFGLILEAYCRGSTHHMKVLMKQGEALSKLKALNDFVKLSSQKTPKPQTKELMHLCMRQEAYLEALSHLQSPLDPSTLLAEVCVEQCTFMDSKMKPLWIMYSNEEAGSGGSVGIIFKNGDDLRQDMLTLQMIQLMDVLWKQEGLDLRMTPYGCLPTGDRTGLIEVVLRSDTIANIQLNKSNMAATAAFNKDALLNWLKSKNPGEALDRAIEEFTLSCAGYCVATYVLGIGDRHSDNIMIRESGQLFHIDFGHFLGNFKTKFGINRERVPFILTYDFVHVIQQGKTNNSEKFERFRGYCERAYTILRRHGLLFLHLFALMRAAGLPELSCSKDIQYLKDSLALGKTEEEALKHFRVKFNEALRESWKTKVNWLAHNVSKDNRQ
T4 sequence (P27986 whole entry partner): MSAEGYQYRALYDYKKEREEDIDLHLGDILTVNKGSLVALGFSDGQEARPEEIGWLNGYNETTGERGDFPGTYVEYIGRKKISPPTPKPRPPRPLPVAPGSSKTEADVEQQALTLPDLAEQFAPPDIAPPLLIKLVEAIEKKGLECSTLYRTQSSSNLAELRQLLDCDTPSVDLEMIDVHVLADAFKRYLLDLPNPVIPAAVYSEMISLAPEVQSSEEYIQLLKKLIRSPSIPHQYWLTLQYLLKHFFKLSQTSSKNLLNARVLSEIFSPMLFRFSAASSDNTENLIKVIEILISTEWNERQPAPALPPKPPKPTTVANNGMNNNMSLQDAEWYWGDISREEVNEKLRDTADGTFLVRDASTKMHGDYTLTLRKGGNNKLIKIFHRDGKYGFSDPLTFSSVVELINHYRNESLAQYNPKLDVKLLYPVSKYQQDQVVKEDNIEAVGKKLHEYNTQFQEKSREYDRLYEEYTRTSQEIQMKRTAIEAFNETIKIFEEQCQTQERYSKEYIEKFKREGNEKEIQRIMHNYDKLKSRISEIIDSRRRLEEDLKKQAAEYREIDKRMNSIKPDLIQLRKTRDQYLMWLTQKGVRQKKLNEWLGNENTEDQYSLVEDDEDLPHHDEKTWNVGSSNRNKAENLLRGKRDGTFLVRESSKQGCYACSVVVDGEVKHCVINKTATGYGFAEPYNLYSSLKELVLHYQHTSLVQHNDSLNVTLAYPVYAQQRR
T2 sequence (P42338 whole entry): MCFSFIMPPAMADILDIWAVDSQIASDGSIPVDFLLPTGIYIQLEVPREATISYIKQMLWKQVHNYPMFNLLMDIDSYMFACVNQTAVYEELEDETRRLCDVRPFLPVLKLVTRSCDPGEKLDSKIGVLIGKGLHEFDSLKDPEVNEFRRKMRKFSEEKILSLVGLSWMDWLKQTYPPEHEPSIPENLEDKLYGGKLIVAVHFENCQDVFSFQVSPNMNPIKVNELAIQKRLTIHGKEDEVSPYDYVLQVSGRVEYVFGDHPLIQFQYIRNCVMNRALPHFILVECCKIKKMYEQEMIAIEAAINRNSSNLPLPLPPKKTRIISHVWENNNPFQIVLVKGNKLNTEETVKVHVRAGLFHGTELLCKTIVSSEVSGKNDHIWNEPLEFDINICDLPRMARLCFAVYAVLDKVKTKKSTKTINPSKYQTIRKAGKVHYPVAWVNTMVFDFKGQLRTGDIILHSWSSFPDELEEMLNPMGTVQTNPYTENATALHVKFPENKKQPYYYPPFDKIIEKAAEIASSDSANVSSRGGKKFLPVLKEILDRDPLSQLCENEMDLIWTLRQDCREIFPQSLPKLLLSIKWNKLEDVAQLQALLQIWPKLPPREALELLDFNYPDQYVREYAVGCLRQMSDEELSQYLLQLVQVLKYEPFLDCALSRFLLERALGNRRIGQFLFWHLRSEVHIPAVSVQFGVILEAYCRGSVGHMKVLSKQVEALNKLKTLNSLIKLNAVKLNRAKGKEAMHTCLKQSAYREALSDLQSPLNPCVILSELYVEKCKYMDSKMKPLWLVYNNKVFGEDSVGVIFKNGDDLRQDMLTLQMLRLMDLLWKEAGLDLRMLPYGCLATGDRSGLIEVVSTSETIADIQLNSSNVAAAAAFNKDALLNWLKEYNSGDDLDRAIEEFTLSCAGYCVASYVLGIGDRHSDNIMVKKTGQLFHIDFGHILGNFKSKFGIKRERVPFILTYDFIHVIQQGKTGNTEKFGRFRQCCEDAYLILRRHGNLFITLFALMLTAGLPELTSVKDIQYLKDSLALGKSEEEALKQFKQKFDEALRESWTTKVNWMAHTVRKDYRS
T2 sequence (P27986 whole entry partner): as the sequence (P27986 whole entry partner) above
T1 sequence (P42336 whole entry): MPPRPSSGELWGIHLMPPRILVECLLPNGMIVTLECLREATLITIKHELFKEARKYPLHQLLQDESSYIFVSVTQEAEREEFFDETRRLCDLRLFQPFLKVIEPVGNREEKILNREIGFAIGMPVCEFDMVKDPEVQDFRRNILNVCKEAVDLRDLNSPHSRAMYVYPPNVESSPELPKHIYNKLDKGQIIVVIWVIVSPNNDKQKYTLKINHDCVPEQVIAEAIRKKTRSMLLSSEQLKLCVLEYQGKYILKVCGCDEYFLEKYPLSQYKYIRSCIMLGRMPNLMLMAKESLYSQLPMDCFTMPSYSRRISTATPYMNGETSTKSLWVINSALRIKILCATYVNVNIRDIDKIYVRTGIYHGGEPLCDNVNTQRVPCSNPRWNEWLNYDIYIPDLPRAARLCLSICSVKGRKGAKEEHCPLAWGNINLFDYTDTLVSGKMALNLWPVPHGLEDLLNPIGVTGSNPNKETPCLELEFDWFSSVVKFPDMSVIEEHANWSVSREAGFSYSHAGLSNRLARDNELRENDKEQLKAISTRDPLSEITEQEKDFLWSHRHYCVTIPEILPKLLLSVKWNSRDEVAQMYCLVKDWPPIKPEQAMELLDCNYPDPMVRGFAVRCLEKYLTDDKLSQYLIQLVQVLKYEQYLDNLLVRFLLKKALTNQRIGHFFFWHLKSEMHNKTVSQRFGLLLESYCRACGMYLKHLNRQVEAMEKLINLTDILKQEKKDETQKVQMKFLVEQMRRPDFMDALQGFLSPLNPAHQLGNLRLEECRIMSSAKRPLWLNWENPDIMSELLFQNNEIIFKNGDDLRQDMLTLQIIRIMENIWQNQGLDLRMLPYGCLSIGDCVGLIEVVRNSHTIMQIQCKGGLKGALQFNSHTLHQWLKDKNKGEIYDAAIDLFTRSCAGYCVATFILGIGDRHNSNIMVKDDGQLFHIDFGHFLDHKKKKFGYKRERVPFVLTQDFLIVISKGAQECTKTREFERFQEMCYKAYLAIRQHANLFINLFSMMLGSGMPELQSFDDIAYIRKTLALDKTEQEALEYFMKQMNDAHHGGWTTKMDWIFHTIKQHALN
T1 sequence (P27986 whole entry partner): as the sequence (P27986 whole entry partner) above
T3 sequence (P48736 whole entry): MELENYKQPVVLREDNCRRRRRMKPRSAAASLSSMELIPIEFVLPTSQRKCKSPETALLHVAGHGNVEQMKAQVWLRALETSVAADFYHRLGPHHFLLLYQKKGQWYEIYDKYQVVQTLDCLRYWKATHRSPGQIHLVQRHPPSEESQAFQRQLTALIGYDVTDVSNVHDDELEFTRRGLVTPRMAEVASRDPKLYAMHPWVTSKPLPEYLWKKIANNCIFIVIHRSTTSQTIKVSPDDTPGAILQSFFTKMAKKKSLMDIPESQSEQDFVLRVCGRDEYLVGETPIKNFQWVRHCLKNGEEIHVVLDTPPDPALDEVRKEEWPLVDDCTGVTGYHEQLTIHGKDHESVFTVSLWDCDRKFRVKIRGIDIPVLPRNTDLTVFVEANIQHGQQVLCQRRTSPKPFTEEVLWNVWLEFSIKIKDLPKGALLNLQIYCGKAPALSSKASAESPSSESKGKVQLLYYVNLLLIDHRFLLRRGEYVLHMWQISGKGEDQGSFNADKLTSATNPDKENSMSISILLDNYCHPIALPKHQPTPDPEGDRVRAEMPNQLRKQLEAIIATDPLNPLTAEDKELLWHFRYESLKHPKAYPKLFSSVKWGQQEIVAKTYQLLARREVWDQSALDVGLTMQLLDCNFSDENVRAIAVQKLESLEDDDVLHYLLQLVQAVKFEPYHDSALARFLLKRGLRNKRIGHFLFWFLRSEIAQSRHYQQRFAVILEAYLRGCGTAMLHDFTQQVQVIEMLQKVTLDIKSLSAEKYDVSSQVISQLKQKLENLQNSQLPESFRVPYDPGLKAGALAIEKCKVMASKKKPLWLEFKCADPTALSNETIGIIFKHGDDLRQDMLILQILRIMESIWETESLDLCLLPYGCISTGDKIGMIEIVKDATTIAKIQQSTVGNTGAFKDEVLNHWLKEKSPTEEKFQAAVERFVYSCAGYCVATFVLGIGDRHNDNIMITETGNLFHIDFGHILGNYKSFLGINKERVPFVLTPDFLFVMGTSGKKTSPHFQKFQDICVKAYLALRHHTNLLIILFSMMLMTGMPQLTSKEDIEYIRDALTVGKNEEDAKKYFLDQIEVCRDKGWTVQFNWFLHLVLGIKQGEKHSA

Consider `O=c1c2cc3ccccc3cc2nc(CSc2ncnc3[nH]cnc23)n1-c1ccccc1Cl` [Compound D-019, 3-(2-Chlorophenyl)-2-(9H-purin-6-ylsulfanylmethyl)-3H-benzo[g]quinazolin-4-one], for which the melting point was 247.8 to 254.4 °C (dec.). For the same compound, on PI3Kα [1], the “Alpha/Delta Ratio” value is listed as 10 and the IC50 was 67 µM. At PI3Kβ [2], the “Beta/Delta Ratio” value was determined as 15 and the IC50 is 105 µM. In addition, on PI3Kα [3], the “Alpha/Delta Ratio” value amounted to 7. Moreover, on PI3Kβ [4], the “Beta/Delta Ratio” value came to 3 and the IC50 was 100 µM. Also, at PI3Kγ [5], the “Gamma/Delta Ratio” value was 1 and the IC50 amounted to 33 µM. In addition, in series [6], the EC50 was determined as 0.9 ± 0.01 µM. Moreover, the EC50 with T cell proliferation was determined as 0.9 µM. This compound came in with an IC50 against PI3Kδ [7] of 30 µM. The IC50 at PI3Kδ [8] was determined as 7 µM.
`Nc1ncnc2c1ncn2Cc1nc2cc(F)ccc2c(=O)n1-c1ccccc1Cl` [Compound D-003, 2-(6-Aminopurin-o-ylmethyl)-3-(2-chlorophenyl)-7-fluoro-3N-quinazolin-4-one]: the melting point was 216.8 to 217.2 °C. Also, on PI3Kα [1], the “Alpha/Delta Ratio” value turned out to be 22 and the IC50 was determined as 92 µM. Besides, on PI3Kβ [2], the “Beta/Delta Ratio” value was >24 and the remaining activity at 100 µM was 53%. Further, in series [6], the 50% effective concentration (EC50) came to 3.9 µM. For the same compound, the EC50 in the series with T cell proliferation amounted to 5.7 µM. Moreover, the IC50 on PI3Kδ [8] turned out to be 4 µM.
On to `O=c1c2cccc(Cl)c2nc(CSc2ncnc3[nH]cnc23)n1-c1ccccc1Cl` [Compound D-021, 8-Chloro-3-(2-chlorophenyl)-2-(9H-purin-6-ylsulfanylmethyl)-3H-quinazolin-4-one], for which the melting point fell in the range of 211.9 to 212.7 °C. For the same compound, at PI3Kα [1], the “Alpha/Delta Ratio” value is listed as 62 and the IC50 is 100 µM. Moreover, on PI3Kβ [2], the “Beta/Delta Ratio” value was 68 and the IC50 turned out to be 110 µM. In series [6], the EC50 was found to be 1.8 µM. Moreover, the half-maximal effective concentration (EC50) in the series on T cell proliferation is 3.5 µM. The IC50 on PI3Kδ [8] is 1.6 µM.
On to `O=c1c2c(F)cccc2nc(CSc2ncnc3[nH]cnc23)n1Cc1ccccc1` [Compound D-043, 3-benzyl-5-fluoro-2-(9H-purin-6-ylsulfanylmethyl)-3H-quinazolin-4-one], for which, at PI3Kα [1], the “Alpha/Delta Ratio” value is recorded as >47 and the remaining activity at 100 µM was 83%. At PI3Kβ [2], the “Beta/Delta Ratio” value is reported as >47 and the remaining activity at 100 µM stood at 77%. Further, in series [6], the EC50 was determined as 1.4 µM. For the same compound, the EC50 with T cell proliferation was determined as 2.6 µM. On PI3Kδ [8], the IC50 stood at 2.1 µM.
Regarding `Nc1ncnc2c1ncn2Cc1nc2cccc(F)c2c(=O)n1Cc1ccccc1` [Compound D-049, 2-(6-aminopurin-9-ylmethyl)-3-benzyl-5-fluoro-3H-quinazolin-4-one], the “Alpha/Delta Ratio” value on PI3Kα [1] is listed as >100. In addition, the remaining activity at 100 µM on PI3Kα [1] turned out to be 110%. At PI3Kβ [2], the “Beta/Delta Ratio” value is 30. For the same compound, the IC50 came to 30 µM at PI3Kβ [2] and 1 µM at PI3Kδ [8]. The figures for the EC50 (in the series on human neutrophils; in series [6]; with T cell proliferation) were 5 µM, 2 µM and 6.3 µM, respectively.
Compound `O=c1c2c(Cl)cccc2nc(CSc2ncnc3[nH]cnc23)n1-c1ccccc1F` [Compound D-011, 5-Chloro-3-(2-fluorophenyl)-2-(9H-purin-6-ylsulfanylmethyl)-3H-quinazolin-4-one] yielded a melting point of 244 °C. For the same compound, at PI3Kα [1], the “Alpha/Delta Ratio” value is given as >1,000 and the remaining activity at 100 µM is 72%. For the same compound, on PI3Kβ [2], the “Beta/Delta Ratio” value is 550 and the IC50 amounted to 55 µM. The same compound had an IC50 against PI3Kγ [9] of 1 µM. Also, the “Gamma/Delta Ratio” value on PI3Kγ [9] (ratio of IC50 values) is on record as 10. Also, the “Alpha/Delta Ratio” value at PI3Kα [3] worked out at 700. In addition, on PI3Kβ [4], the “Beta/Delta Ratio” value was determined as 420 and the IC50 was 105 ± 35 µM. Also, on PI3Kγ [5], the “Gamma/Delta Ratio” value stood at 244 and the IC50 was determined as 61 ± 70 µM. The compound further displayed an EC50 in the series with human neutrophils of 0.9 ± 0.7 µM. Moreover, the EC50 in [6] was determined as 0.3 ± 0.1 µM. The compound also gave an IC50 at PI3Kδ [7] of 0.25 ± 0.2 µM. Besides, the IC50 on PI3Kδ [8] came to 0.1 µM.

The EC50 is the concentration at which the effect is half-maximal. Broadly, the melting point is the temperature, or range, at which the solid turns liquid. In general, remaining activity refers to the signal under treatment as a percentage of the control signal.
